Where a name gives a salt, the structure may show the parent alone.
Key:
[1] = biological target: T1, Human vitronectin receptor (αv β3) (Homo sapiens, UniProt P05106+P06756); test: Vitronectin adhesion assay (solid phase receptor assay, αvβ3); type: binding; settings: inhibition of binding of biotinylated human vitronectin (1 nM) to purified receptor; Table I; read-out: AvB3 IC50
T1 construct: Human vitronectin receptor (αv β3) was purified from human placenta; from tissue; host or cells: human placenta
T1 sequence (P06756 31-889 limits assumed): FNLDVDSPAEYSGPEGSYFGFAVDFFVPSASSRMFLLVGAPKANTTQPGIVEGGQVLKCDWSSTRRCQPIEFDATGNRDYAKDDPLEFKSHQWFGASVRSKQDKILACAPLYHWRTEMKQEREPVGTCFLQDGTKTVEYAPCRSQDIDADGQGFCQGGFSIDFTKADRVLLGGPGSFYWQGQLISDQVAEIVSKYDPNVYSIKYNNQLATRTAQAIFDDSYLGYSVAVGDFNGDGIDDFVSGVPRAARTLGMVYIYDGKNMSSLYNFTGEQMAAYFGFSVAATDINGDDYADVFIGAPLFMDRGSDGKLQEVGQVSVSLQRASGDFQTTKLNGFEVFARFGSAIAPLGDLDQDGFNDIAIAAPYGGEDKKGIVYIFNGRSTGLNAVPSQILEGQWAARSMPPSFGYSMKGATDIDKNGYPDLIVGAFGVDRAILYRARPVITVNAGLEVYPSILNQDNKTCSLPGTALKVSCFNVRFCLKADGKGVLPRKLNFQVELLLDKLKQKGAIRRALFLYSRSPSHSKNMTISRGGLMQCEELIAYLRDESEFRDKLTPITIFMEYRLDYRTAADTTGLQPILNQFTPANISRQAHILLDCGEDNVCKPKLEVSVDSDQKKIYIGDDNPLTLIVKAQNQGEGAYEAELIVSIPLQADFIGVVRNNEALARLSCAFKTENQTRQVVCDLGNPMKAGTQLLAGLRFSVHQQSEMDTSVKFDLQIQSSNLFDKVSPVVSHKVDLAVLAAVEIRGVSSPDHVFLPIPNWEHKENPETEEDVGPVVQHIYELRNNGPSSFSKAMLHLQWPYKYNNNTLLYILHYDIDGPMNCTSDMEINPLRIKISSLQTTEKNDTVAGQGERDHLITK
T1 sequence (P06756 891-1048 limits assumed): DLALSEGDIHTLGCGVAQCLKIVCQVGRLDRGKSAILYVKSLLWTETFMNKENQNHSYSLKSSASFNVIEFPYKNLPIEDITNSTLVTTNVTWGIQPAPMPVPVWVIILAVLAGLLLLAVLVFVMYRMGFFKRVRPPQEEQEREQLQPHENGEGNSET
T1 sequence (P05106 27-788): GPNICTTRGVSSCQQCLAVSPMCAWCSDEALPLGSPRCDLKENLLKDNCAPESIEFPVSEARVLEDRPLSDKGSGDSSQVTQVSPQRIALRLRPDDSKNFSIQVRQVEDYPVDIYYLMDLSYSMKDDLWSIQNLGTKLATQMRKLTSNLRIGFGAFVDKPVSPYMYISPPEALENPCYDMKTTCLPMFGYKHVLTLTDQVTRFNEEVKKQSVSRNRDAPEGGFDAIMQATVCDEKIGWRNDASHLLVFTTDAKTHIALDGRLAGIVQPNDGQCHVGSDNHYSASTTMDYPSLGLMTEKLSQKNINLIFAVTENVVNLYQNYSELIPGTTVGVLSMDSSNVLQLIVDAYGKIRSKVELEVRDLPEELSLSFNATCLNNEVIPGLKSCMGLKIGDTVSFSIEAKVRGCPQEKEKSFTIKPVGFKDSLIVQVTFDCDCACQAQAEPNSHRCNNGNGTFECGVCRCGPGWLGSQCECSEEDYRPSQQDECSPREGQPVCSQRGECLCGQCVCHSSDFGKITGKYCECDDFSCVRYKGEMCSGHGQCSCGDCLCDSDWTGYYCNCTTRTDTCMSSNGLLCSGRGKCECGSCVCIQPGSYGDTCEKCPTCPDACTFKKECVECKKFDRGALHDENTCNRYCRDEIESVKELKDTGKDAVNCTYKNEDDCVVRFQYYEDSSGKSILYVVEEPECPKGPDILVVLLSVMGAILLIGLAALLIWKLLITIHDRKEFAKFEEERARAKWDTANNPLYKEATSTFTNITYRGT
Procedure, shortened: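 Placental αvβ3 (100 ng/well) coated in TBS with 1 mM Ca, Mg, Mn, pH 7.4, then compound competed with 1 nM biotinylated vitronectin for 2 h at room temperature (top compound concentration 1.0×10^-4 M). Bound ligand detected with HRP anti-biotin/OPD at 450 nm; values normalized to maximum binding, four-parameter curve fit.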

[2] = biological target: T2, Human fibrinogen receptor (αIIb β3) (Homo sapiens, UniProt P05106+P08514); test: Purified IIb/IIIa receptor assay (solid phase receptor assay); settings: inhibition of binding of biotinylated human vitronectin (1 nM) to purified receptor; Table I
T2 construct: Human fibrinogen receptor (αIIb β3) was purified from outdated platelets; from tissue; host or cells: human outdated platelets
T2 sequence (P08514 32-887 limits assumed): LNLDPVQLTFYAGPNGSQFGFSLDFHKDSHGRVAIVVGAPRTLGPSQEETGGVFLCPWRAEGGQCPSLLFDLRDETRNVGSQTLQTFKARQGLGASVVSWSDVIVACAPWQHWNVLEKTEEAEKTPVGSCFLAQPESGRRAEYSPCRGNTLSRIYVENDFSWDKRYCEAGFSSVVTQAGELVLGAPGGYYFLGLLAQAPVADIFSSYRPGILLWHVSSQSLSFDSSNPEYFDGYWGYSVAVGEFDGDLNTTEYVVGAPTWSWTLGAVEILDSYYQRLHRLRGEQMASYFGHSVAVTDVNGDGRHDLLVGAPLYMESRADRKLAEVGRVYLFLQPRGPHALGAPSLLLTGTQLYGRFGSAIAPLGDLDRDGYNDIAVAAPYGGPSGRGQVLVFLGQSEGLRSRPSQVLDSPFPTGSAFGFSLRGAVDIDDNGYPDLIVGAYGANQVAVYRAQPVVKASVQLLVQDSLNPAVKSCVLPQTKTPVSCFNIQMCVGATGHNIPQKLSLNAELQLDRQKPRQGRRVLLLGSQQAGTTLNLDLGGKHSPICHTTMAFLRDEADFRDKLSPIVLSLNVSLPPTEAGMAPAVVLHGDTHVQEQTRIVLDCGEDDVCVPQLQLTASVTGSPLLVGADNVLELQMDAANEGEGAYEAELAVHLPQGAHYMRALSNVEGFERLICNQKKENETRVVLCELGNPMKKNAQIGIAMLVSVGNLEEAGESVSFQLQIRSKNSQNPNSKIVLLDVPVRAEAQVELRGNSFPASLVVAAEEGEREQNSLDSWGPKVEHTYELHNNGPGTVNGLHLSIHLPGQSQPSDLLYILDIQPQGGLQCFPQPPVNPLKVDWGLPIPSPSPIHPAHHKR
T2 sequence (P08514 891-1039 limits assumed): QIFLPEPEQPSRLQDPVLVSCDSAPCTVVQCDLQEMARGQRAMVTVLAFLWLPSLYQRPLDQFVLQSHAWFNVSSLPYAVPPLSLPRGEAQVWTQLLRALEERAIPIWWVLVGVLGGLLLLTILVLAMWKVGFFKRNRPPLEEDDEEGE
T2 sequence (P05106 27-788): as the sequence (P05106 27-788) above
Procedure, shortened: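 Platelet-purified αIIbβ3 (100 ng/well) coated overnight at 4 °C, then competed 2 h at room temperature against 1 nM biotinylated human vitronectin in TBS with 1.0 mM Ca/Mg/Mn, pH 7.4, 1% BSA; top compound 1.0×10^-4 M. Bound ligand detected by HRP anti-biotin, A450, normalized to maximum binding, four-parameter fit.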

An IC50 [1] of 12.1 nM and an IC50 [2] of 4.95 µM were found for `CC(C)COC(=O)N1CCN=C1Nc1cccc(C(=O)NCc2cccc(/C=C/C(=O)O)c2)c1` [Example 65, 3-[3-[[[[3-[[4,5-dihydro-1-[(2-methylpropoxy)carbonyl]-1H-imidazol-2-yl]amino]phenyl]carbonyl]amino]methyl]phenyl]propenoic acid, monohydrochloride hydrate] in this work.
An IC50 [1] of 2.27 nM and an IC50 [2] of 12 µM were found for `O=C(O)/C=C/c1cccc(CNC(=O)c2cccc(NC3=NCCN3)c2)c1` [Example 67, 3-[3-[[[[3-[(4,5-dihydro-1H-imidazol-2-yl)amino]phenyl]carbonyl]amino]methyl]phenyl]propenoic acid, monohydrochloride hydrate] in this work.
An IC50 [1] of 1.78 nM and an IC50 [2] of 38.9 µM were found for `O=C(O)/C=C/c1cccc(CNC(=O)c2cc(NC3=NCCCN3)cc(C(F)(F)F)c2)c1` [Example 69, 3-[3-[[[[3-[(1,4,5,6-tetrahydropyrimidin-2-yl)amino]-5-(trifluoromethyl)phenyl]carbonyl]amino]methyl]phenyl]propenoic acid, dihydrochloride hydrate] in this work.
An IC50 [1] of 1.33 nM and an IC50 [2] of 18.5 µM were found for `O=C(O)/C=C/c1cccc(CNC(=O)c2cc(NC3=NCCN3)cc(C(F)(F)F)c2)c1` [Example 71, 3-[3-[[[[3-[(4,5-dihydro-1H-imidazol-2-yl)amino]-5-(trifluoromethyl)phenyl]carbonyl]amino]methyl]phenyl]propenoic acid, monohydrochloride hydrate] in this work.
An IC50 [1] of 20400 nM and an IC50 [2] of 66 µM were found for `O=C(O)/C=C/c1cccc(CNC(=O)c2cccc(Nc3ncccn3)c2)c1` [Example 73, 3-[3-[[[[3-[(2-pyrimidinyl)amino]phenyl]carbonyl]amino]methyl]phenyl]propenoic acid, trifluoroacetate salt] in this work.
An IC50 [1] of 2690 nM and an IC50 [2] of over 100 µM were found for `CC/C(=C\C(=O)O)c1cccc(CNC(=O)c2cccc(NC(=N)N)c2)c1` [Example 74, 3-[3-[[[[3-[(aminoiminomethyl)amino]phenyl]carbonyl]amino]methyl]phenyl]-2E-pentenoic acid, trifluoroacetate salt hydrate] in this work.
An IC50 [1] of 42700 nM and an IC50 [2] of over 100 µM were found for `N=C(N)Nc1cccc(C(=O)NCc2cccc(C(=CC(=O)O)c3cc(Cl)cc(Cl)c3)c2)c1` [Example 75, 3-[3-[[[[3-[(aminoiminomethyl)amino]phenyl]carbonyl]amino]methyl]phenyl]-3-(3,5-dichlorophenyl) propenoic acid, trifluoroacetate salt] in this work.
An IC50 [1] of 8.8 nM and an IC50 [2] of 0.825 µM were found for `O=C(O)/C=C/c1ccc2c(c1)CCN2C(=O)c1cccc(NC2=NCCCN2)c1` [Example 76, 3-[2,3-dihydro-1-[[3-[(1,4,5,6-tetrahydropyrimidin-2-yl)amino]phenyl]carbonyl]-1H-indol-5-yl]propenoic acid, trifluoroacetate salt] in this work.
An IC50 [1] of 12.3 nM and an IC50 [2] of 0.231 µM were found for `O=C(O)/C=C/c1ccc2c(c1)CCN2C(=O)c1cccc(NC2=NCCN2)c1` [Example 77, 3-[1-[[3-[(4,5-dihydro-1H-imidazol-2-yl)amino]phenyl]carbonyl]2,3-dihydro-1H-indol-5-yl]propenoic acid, trifluoroacetate salt] in this work.
An IC50 [1] of 56.3 nM and an IC50 [2] of 1.79 µM were found for `O=C(O)/C=C/c1ccc2c(c1)CCCN2C(=O)c1cccc(NC2=NCCCN2)c1` [Example 78, 3-[1-[[3-[(1,4,5,6-tetrahydropyrimidin-2-yl)amino]phenyl]carbonyl]-1,2,3,4-tetrahydro-quinolin-6-yl]propenoic acid, trifluoroacetate salt] in this work.
An IC50 [1] of 12 nM and an IC50 [2] of 0.415 µM were found for `N=C(N)Nc1cccc(C(=O)COc2cccc(/C=C/C(=O)O)c2)c1` [Example 79, 3-[3-[2-[3-[(aminoimino)methyl]amino]phenyl]-2-oxoethoxy]phenyl]propenoic acid, trifluoroacetate salt] in this work.
An IC50 [1] of 1.02 nM and an IC50 [2] of 3.47 µM were found for `O=C(O)/C=C/c1cccc(OCC(=O)c2cccc(NC3=NCCN3)c2)c1` [Example 80, 3-[3-[2-[3-[(4,5-dihydro-1H-imidazol-2-yl)amino]phenyl]-2-oxoethoxy]phenyl]propenoic acid, trifluoroacetate salt] in this work.
An IC50 [1] of 54.3 nM and an IC50 [2] of 5.02 µM were found for `N=C(N)Nc1cccc(C(O)CNc2cccc(/C=C/C(=O)O)c2)c1` (centres unmarked) [Example 81, 3-[3-[[2-[3-[(aminoiminomethyl)amino]phenyl]-2-hydroxyethyl]amino]phenyl]propenoic acid, (bis)trifluoroacetate salt hydrate] in this work.
An IC50 [1] of 21.7 nM and an IC50 [2] of 10 µM were found for `O=C(O)/C=C/c1cccc(C(=O)COc2cccc(NC3=NCCN3)c2)c1` [Example 83, 3-[3-[2-[3-[(4,5-dihydro-1H-imidazol-2-yl)amino]phenoxy]acetyl]phenyl]propenoic acid, trifluoroacetate salt] in this work.
An IC50 [1] of 891 nM and an IC50 [2] of 35.2 µM were found for `N=C(N)Nc1cccc(/C=C/C(=O)c2ccc(F)c(/C=C/C(=O)O)c2)c1` [Example 84, 3-[5-[3-[3-[(aminoiminomethyl)amino]phenyl]-1-oxopropenyl]-2-fluorophenyl]propenoic acid, trifluoroacetate salt] in this work.
An IC50 [1] of 92 nM and an IC50 [2] of 20.8 µM were found for `O=C(O)C=Cc1cc(C(=O)C=Cc2cccc(C3=NCCCN3)c2)ccc1F` [Example 85, 3-[5-[3-[3-[(1,4,5,6-tetrahydrolpyrimidin-2-yl)]phenyl]-1-oxopropenyl]-2-fluorophenyl]propenoic acid, trifluoroacetate salt] in this work.
An IC50 [1] of 580 nM and an IC50 [2] of 0.563 µM were found for `COc1ccc(/C=C/C(=O)O)cc1C(=O)/C=C/c1cccc(NC(=N)N)c1` [Example 86, 3-[3-[3-[3-[(aminoiminomethyl)amino]phenyl]-1-oxopropenyl]-4-methoxyphenyl]propenoic acid, trifluoroacetate salt] in this work.
An IC50 [1] of 90.5 nM and an IC50 [2] of 2.64 µM were found for `COc1ccc(/C=C/C(=O)O)cc1C(=O)/C=C/c1cccc(NC2=NCCN2)c1` [Example 87, 3-[3-[3-[3-[(4,5-dihydro-1H-imidazol-2-yl)amino]phenyl]-1-oxopropenyl]-4-methoxyphenyl]propenoic acid, trifluoroacetate salt] in this work.
An IC50 [1] of 37.3 nM and an IC50 [2] of 2.61 µM were found for `N=C(N)Nc1cccc(/C=C/C(=O)c2cccc(/C=C/C(=O)O)c2)c1` [Example 88, 3-[3-[3-[3-[(aminoiminomethyl)amino]phenyl]-1-oxopropenyl]phenyl]propenoic acid, trifluoroacetate salt] in this work.
An IC50 [1] of 196 nM and an IC50 [2] of 1.26 µM were found for `N=C(N)Nc1cccc(C(=O)/C=C/c2cccc(/C=C/C(=O)O)c2)c1` [Example 89, 3-[3-[3-[3-[(aminoiminomethyl)amino]phenyl]-3-oxopropenyl]phenyl]propenoic acid, trifluoroacetate salt hydrate] in this work.
An IC50 [1] of 6.98 nM and an IC50 [2] of 2.32 µM were found for `O=C(O)/C=C/c1cccc(C(=O)/C=C/c2cccc(NC3=NCCCN3)c2)c1` [Example 90, 3-[3-[1-oxo-3-[3-[(1,4,5,6-tetrahydropyrimidin-2-yl)amino]phenyl]-2-propenyl]phenyl]propenoic acid, trifluoroacetate salt] in this work.
An IC50 [1] of 1270 nM and an IC50 [2] of 8.67 µM were found for `N=C(N)Nc1cccc(C(=O)CCc2cccc(/C=C/C(=O)O)c2)c1` [Example 91, 3-[3-[3-[3-[(aminoiminomethyl)amino]phenyl]-3-oxopropyl]phenyl]propenoic acid, trifluoroacetate salt hydrate] in this work.
